Test results reported in article PMC7944860 (Antiviral Research, 2021).
Where “and” joins values, the source holds several entries; their conditions need not be identical. Equal entries are not always repeated. Where two headings read alike, the source gives them in different places.

What was measured:
HCoV-OC43 [1] = test: HCoV-OC43 focus reduction assay on MRC-5 cells; assay type: cell-based; conditions: for selectivity index: HCoV-OC43, ratio of CC50 and EC50
SARS-CoV2 [2] = test: microbe, parasite or virus in culture; assay type: cell-based; conditions: for EC50: read-out: EC50 (μM) (mean ± SD), virus yield reduction
HCoV-OC43 [3] = test: HCoV-OC43 virus yield reduction assay on MRC-5 cells; assay type: cell-based; conditions: for EC50: Betacoronavirus 1, OC43, MRC5, 24 h, read-out: EC50 (μM) (mean ± SD), virus yield reduction; for Virus titer reduction Log10 (mean ± SD) at highest tested dose: FFU/mL vs infected untreated control
Cell viability assay = conditions: human, MRC-5 cells
SARS-CoV2 [4] = conditions: 2020, cited from earlier work; for increase of remdesivir inhibitory activity (synergy): ref Bafna et al.
Cytotoxicity assay = conditions: human, Huh7-hACE2 cells
SARS-CoV2 [5] = test: microbe, parasite or virus in culture; assay type: cell-based; conditions: for EC50: read-out: EC50 (μM) (mean ± SD)
MRC-5 cells = test: Cell viability assay; conditions: read-out: CC50 (μM) (mean ± SD), 20 h, MTS
Huh7-hACE2 cells = test: Cytotoxicity assay; conditions: read-out: CC50 (μM) (mean ± SD), 20 h, Alamar Blue
[6] = Betacoronavirus 1, OC43, MRC5, 20 h, read-out: EC50 (μM) (mean ± SD), HCoV-OC43, MRC-5 cells, 20 h, focus reduction
[7] = Severe acute respiratory syndrome coronavirus 2, 20 h
[8] = HCoV-OC43, MRC-5 cells, 20 h, focus reduction
[9] = read-out: EC50 (μM) (mean ± SD), HCoV-OC43, MRC-5 cells, 20 h, focus reduction

For `COC(=O)N[C@H](C(=O)N1CCC[C@H]1c1nc(-c2ccc3c(c2)O[C@@H](c2ccccc2)n2c-3cc3cc(-c4c[nH]c([C@@H]5CCCN5C(=O)[C@@H](NC(=O)OC)C(C)C)n4)ccc32)c[nH]1)C(C)C` [Elbasvir], the EC50 (HCoV-OC43 [1]; [6]) was about 1.5 µM, the selectivity index (HCoV-OC43 [1]) was “higher than 600” and the “Virus titer reduction Log10 (mean ± SD) at highest tested dose” value (from here on “Virus titer reduction Log10 (mean ± SD)”) (SARS-CoV2 [2]) was 0.6 and 0.6 ± 0.2 (100 μM) Log10. For the same compound, the EC50 (SARS-CoV2 [2]; [7]) was 14.4 ± 7.9 µM, the EC50 (HCoV-OC43 [3]) was 1.3 ± 0.4 µM and the “Virus titer reduction Log10 (mean ± SD)” value (HCoV-OC43 [3]; HCoV-OC43, 100 μM) was 1.4 ± 0.2 (100 μM) Log10. The CC50 at 20 h (Cell viability assay) was over 1000 µM, the “increase of remdesivir's apparent potency in preventing SARS-CoV2 replication” value (SARS-CoV2 [4]; in combination with grazoprevir (Zepatier), ref Nguyenla et al.) was 25 fold and the CC50 at 20 h (Cytotoxicity assay) was over 1000 µM. The EC50 (SARS-CoV2 [5]; [7]) was about 23 µM.

With `CCc1cc2c(cc1N1CCC(N3CCOCC3)CC1)C(C)(C)c1[nH]c3cc(C#N)ccc3c1C2=O` [Alectinib] the EC50 (HCoV-OC43 [1]; [6]) was 0.6 ± 0.2 µM, the EC50 (HCoV-OC43 [3]) was 1 ± 0.1 µM and the “Virus titer reduction Log10 (mean ± SD)” value (HCoV-OC43 [3]; HCoV-OC43, 33 μM) was 2.9 ± 0.1 (33 μM) Log10. For the same compound, the CC50 at 20 h (Cell viability assay) was over 1000 µM and the “EC50 (μM) (mean ± SD)” value (SARS-CoV2 [5]) was “no activity”.

With `CCc1c2c(nc3ccc(OC(=O)N4CCC(N5CCCCC5)CC4)cc13)-c1cc3c(c(=O)n1C2)COC(=O)[C@]3(O)CC` [Irinotecan] the “EC50 (μM) (mean ± SD)” value (HCoV-OC43 [1]; [8]) was “no antiviral activity”, the CC50 at 20 h (Cell viability assay) was 63.4 ± 11.4 µM and the CC50 at 20 h (Cytotoxicity assay) was over 100 µM. The EC50 (SARS-CoV2 [5]; [7]) was 85.2 ± 17 µM.

In the case of `COc1ccc2c(O[C@@H]3C[C@H]4C(=O)N[C@]5(C(=O)NS(=O)(=O)C6CC6)C[C@H]5/C=C\CCCCN(C)C(=O)[C@@H]4C3)cc(-c3nc(C(C)C)cs3)nc2c1C` [Simeprevir], the EC50 (HCoV-OC43 [1]; [6]) is listed as about 2.1 µM, the CC50 at 20 h (Cell viability assay) is listed as 11.1 ± 2.3 µM and the “increase of remdesivir inhibitory activity (synergy)” value (SARS-CoV2 [4]) is listed as at most 10 fold. For the same compound, the CC50 at 20 h (Cytotoxicity assay) was 47.5 ± 41 µM and the EC50 (SARS-CoV2 [5]; [7]) was about 9.3 µM.

For `CCN1CCN(C(=O)N[C@@H](C(=O)N[C@@H]2C(=O)N3C(C(=O)O)=C(CSc4nnnn4C)CS[C@H]23)c2ccc(O)cc2)C(=O)C1=O` [Cefoperazone], the “EC50 (μM) (mean ± SD)” value (HCoV-OC43 [1]; [8]) was “no antiviral activity” and the CC50 at 20 h (Cell viability assay) was over 1000 µM.

For `O=C1[C@@H]2[C@H]3CC[C@H](C3)[C@@H]2C(=O)N1C[C@@H]1CCCC[C@H]1CN1CCN(c2nsc3ccccc23)CC1` [Lurasidone], the EC50 (HCoV-OC43 [1]; [6]) was 1.1 ± 0.4 µM, the selectivity index (HCoV-OC43 [1]) was “higher than 600” and the “Virus titer reduction Log10 (mean ± SD)” value (SARS-CoV2 [2]) was 1.3 and 1.3 ± 0.3 (100 μM) Log10. For the same compound, the EC50 (SARS-CoV2 [2]; [7]) was 6.4 ± 3.9 µM, the EC50 (HCoV-OC43 [3]) was 8.3 ± 2 µM and the “Virus titer reduction Log10 (mean ± SD)” value (HCoV-OC43 [3]; HCoV-OC43, 100 μM) was 6.3 ± 1.5 (100 μM) Log10. For the same compound, the CC50 at 20 h (Cell viability assay) was over 1000 µM, the CC50 at 20 h (Cytotoxicity assay) was over 1000 µM and the EC50 (SARS-CoV2 [5]; [7]) was 18 ± 4.6 µM.

Work on `Cc1ccc(C(=O)Nc2ccc(CN3CCN(C)CC3)c(C(F)(F)F)c2)cc1C#Cc1cnc2cccnn12` [Ponatinib] yielded an EC50 (HCoV-OC43 [1]; [6]) of 0.1 ± 0.05 µM, a CC50 at 20 h (Cell viability assay) of 3.1 ± 0.5 µM and a CC50 at 20 h (Cytotoxicity assay) of 8.7 ± 3.8 µM. It also gave an EC50 (SARS-CoV2 [5]; [7]) of 1.1 ± 0.2 µM.

In the case of `Cn1nnc(-c2ccc(-c3ccc(N4C[C@H](COP(=O)(O)O)OC4=O)cc3F)cn2)n1` [Tedizolid, Tedizolid phosphate], the EC50 (HCoV-OC43 [1]; [9]) is reported as 94 ± 25 µM and the CC50 (MRC-5 cells) is reported as over 1000 µM.

For `C[C@@H]1C/C=C/C=C/C=C/C=C/[C@H](O[C@@H]2O[C@H](C)[C@@H](O)[C@H](N)[C@@H]2O)C[C@@H]2O[C@](O)(C[C@@H](O)C[C@H]3O[C@@H]3/C=C/C(=O)O1)C[C@H](O)[C@H]2C(=O)O` [Natamycin], the “EC50 (μM) (mean ± SD)” value (HCoV-OC43 [1]; [8]) was “no antiviral activity”, the CC50 at 20 h (Cell viability assay) was 47.3 ± 4.4 µM and the CC50 at 20 h (Cytotoxicity assay) was 35.9 ± 13.4 µM. For the same compound, the EC50 (SARS-CoV2 [5]; [7]) was 24.3 ± 4.4 µM.

`CC1(C)[C@@H](OC(=O)CCC(=O)O)CC[C@]2(C)[C@H]3C(=O)C=C4[C@@H]5C[C@@](C)(C(=O)O)CC[C@]5(C)CC[C@@]4(C)[C@]3(C)CC[C@@H]12` [Carbenoxolone] showed an EC50 (HCoV-OC43 [1]; [6]) of 45.7 ± 8 µM, a CC50 at 20 h (Cell viability assay) of 251 ± 17 µM and a CC50 at 20 h (Cytotoxicity assay) of over 100 µM. The EC50 (SARS-CoV2 [5]; [7]) was 66 ± 11 µM.

For `Cc1ccc(C(=O)Nc2ccc(S(=O)(=O)O)c3cc(S(=O)(=O)O)cc(S(=O)(=O)O)c23)cc1NC(=O)c1cccc(NC(=O)Nc2cccc(C(=O)Nc3cc(C(=O)Nc4ccc(S(=O)(=O)O)c5cc(S(=O)(=O)O)cc(S(=O)(=O)O)c45)ccc3C)c2)c1` [Suramin], the EC50 (HCoV-OC43 [1]; [6]) was 19.3 ± 4.3 µM, the CC50 at 20 h (Cell viability assay) was over 1000 µM and the CC50 at 20 h (Cytotoxicity assay) was over 100 µM. For the same compound, the EC50 (SARS-CoV2 [5]; [7]) was 64 ± 6.6 µM.

With `C=C[C@@H]1C[C@]1(NC(=O)[C@@H]1C[C@@H]2CN1C(=O)[C@H](C(C)(C)C)NC(=O)O[C@@H]1C[C@H]1CCCCCc1nc3ccc(OC)cc3nc1O2)C(=O)NS(=O)(=O)C1CC1.O` [Grazoprevir] the EC50 (HCoV-OC43 [1]; [9]) was 11 ± 1.1 µM, the “Virus titer reduction Log10 (mean ± SD)” value (SARS-CoV2 [2]) was 3.9 and 3.9 ± 0.07 (100 μM) Log10 and the EC50 (SARS-CoV2 [2]) was 3.3 ± 0.9 µM. For the same compound, the CC50 (MRC-5 cells) was 70 ± 12.8 µM, the “increase of remdesivir inhibitory activity (synergy)” value (SARS-CoV2 [4]) was at most 10 fold and the CC50 (Huh7-hACE2 cells) was 118 ± 6 µM. The EC50 (SARS-CoV2 [5]) was ~16 µM and 16 µM.

With `COc1cc([C@@H]2c3cc4c(cc3[C@@H](O[C@@H]3O[C@@H]5CO[C@@H](c6cccs6)O[C@H]5[C@H](O)[C@H]3O)[C@H]3COC(=O)[C@H]23)OCO4)cc(OC)c1O` [Teniposide] the “EC50 (μM) (mean ± SD)” value (HCoV-OC43 [1]; [8]) was “no antiviral activity”, the CC50 at 20 h (Cell viability assay) was 701 ± 281 µM and the CC50 at 20 h (Cytotoxicity assay) was over 100 µM. The EC50 (SARS-CoV2 [5]; [7]) was 97 ± 0.7 µM.

With `CC1(C)CCC(CN2CCN(c3ccc(C(=O)NS(=O)(=O)c4ccc(NCC5CCOCC5)c([N+](=O)[O-])c4)c(Oc4cnc5[nH]ccc5c4)c3)CC2)=C(c2ccc(Cl)cc2)C1` [Venetoclax] the EC50 (HCoV-OC43 [1]; [6]) was 3.5 ± 0.5 µM, the CC50 at 20 h (Cell viability assay) was 10.6 ± 1.5 µM and the CC50 at 20 h (Cytotoxicity assay) was 22 ± 6.2 µM. For the same compound, the EC50 (SARS-CoV2 [5]; [7]) was about 6.2 µM.
